Measured values from ChEMBL document CHEMBL1201862, “PubChem BioAssay data set” (2004).
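Exposure lasted 48 hours, with cells grown in 96-well plates and compounds tested at five concentrations. At the GI50, growth is halved.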 The source made the active and inactive calls. No stated cut-off is given here; in the data, active = GI50 up to about 1.1 µM and inactive = higher. Where a SMILES comes first, the peptide text is derived from it.

Legend:
Experiment in all cases: DTP human tumour cell line panel, 48 h
IGROV-1 = test system: IGROV-1
ACHN = test system: ACHN
SN12C = test system: SN12C
UO-31 = test system: UO-31
SK-MEL-2 = test system: SK-MEL-2
HOP-62 = test system: HOP-62
DMS-273 = test system: DMS-273
SF-268 = test system: SF-268
HCT-116 = test system: HCT-116
EKVX = test system: EKVX
KM12 = test system: KM12
CCRF-CEM = test system: CCRF-CEM
TK-10 = test system: TK-10
PC-3 = test system: PC-3
MDA-MB-435 = test system: MDA-MB-435
SK-OV-3 = test system: SK-OV-3
MCF7 = test system: MCF7
XF498 = test system: XF498
DLD-1 = test system: DLD-1
A498 = test system: A498

Row | SMILES | GI50 (IGROV-1) | GI50 (ACHN) | GI50 (SN12C) | GI50 (UO-31) | GI50 (SK-MEL-2) | GI50 (HOP-62) | GI50 (DMS-273) | GI50 (SF-268) | GI50 (HCT-116) | GI50 (EKVX) | GI50 (KM12) | GI50 (CCRF-CEM) | GI50 (TK-10) | GI50 (PC-3) | GI50 (MDA-MB-435) | GI50 (SK-OV-3) | GI50 (MCF7) | GI50 (XF498) | GI50 (DLD-1) | GI50 (A498)
1 | Cc1cc(O)nc(NN2C(Cl)C(=O)C2c2ccc([N+](=O)[O-])cc2)n1 (stereo not drawn) | 4.03 µM (inactive) | 7.4 µM (inactive) | 11.1 µM (inactive) | 13.9 µM (inactive) | 6.07 µM (inactive) | 7.76 µM (inactive) | 8.34 µM (inactive) | 13.1 µM (inactive) | 9.38 µM (inactive) | 23 µM (inactive) | > 10 µM (inactive) | 2.15 µM (inactive) | 15.8 µM (inactive) | – | – | – | – | – | – | –
2 | CCOc1ccc(/C=C2\N=C(c3ccccc3)OC2=O)cc1 | > 100 µM (inactive) | > 100 µM (inactive) | – | > 100 µM (inactive) | > 100 µM (inactive) | > 100 µM (inactive) | – | > 100 µM (inactive) | – | > 100 µM (inactive) | > 100 µM (inactive) | > 100 µM (inactive) | > 100 µM (inactive) | > 100 µM (inactive) | > 100 µM (inactive) | > 100 µM (inactive) | > 100 µM (inactive) | – | – | –
3 | CCCCN1C(=O)NC(Cc2ccccc2)C1=O (stereo not drawn) | – | > 100 µM (inactive) | > 100 µM (inactive) | > 100 µM (inactive) | > 100 µM (inactive) | > 100 µM (inactive) | > 100 µM (inactive) | > 100 µM (inactive) | – | > 100 µM (inactive) | > 100 µM (inactive) | – | > 100 µM (inactive) | – | – | – | – | > 100 µM (inactive) | > 100 µM (inactive) | –
4 | NC(=O)C1CCCN1C(=O)C(N)Cc1ccccc1 (stereo not drawn) (H-Phe-Pro-NH2; configuration not given here) | > 100 µM (inactive) | > 100 µM (inactive) | – | > 100 µM (inactive) | – | > 100 µM (inactive) | – | > 100 µM (inactive) | > 100 µM (inactive) | > 100 µM (inactive) | – | > 100 µM (inactive) | > 100 µM (inactive) | > 100 µM (inactive) | > 100 µM (inactive) | – | > 100 µM (inactive) | – | – | 76.7 µM (inactive)
5 | COC(=O)C[C@](O)(CCC(C)(C)O)C(=O)O[C@@H]1C(OC)=C[C@]23CCCN2CCc2cc4c(cc2[C@H]13)OCO4 [HARRINGTONINE] | 0.0505 µM (active) | – | 0.212 µM (active) | 1.7 µM (inactive) | 0.0989 µM (active) | 0.166 µM (active) | 0.0288 µM (active) | 0.148 µM (active) | 0.0336 µM (active) | 0.0802 µM (active) | 0.0693 µM (active) | 0.0508 µM (active) | – | – | – | 0.0984 µM (active) | 0.0288 µM (active) | < 0.01 µM (active) | 0.121 µM (active) | 0.073 µM (active)
